Here are results for 1 compound from paper PMC6377692 (EJNMMI Research, 2019).

pEC50: −log10 of the molar value. Bridge positions count the residues as written; N and C are the ends. Square brackets hold non-standard residues; d marks the D form. Peptide text beside a SMILES is read from it. * marks the point of attachment. DO3A(CH2CH2SO2CH2CH2) = O=C(O)CN1CCN(CCS(=O)(=O)CC*)CCN(CC(=O)O)CCN(CC(=O)O)CC1; Ala(4-thiazolyl) = N[C@@H](Cc1cscn1)C(=O)O

In the assay the test system is cynomolgus monkey GCGR. Briefly: functional cAMP assay in transfected HEK293 cells. It counts as cell-based. The method, then: The same assay was performed for GLP-1R to assess cross-binding. Details of the assay procedure are described in Additional file 1 and have also been described elsewhere.
cAMP content of cells was determined using a kit from Cisbio Corp. (cat. no. 62AM4PEJ) based on HTRF (Homogenous Time Resolved Fluorescence). For preparation, cells were split into T175 culture flasks and grown overnight to near confluency in medium (DMEM / 10% FBS). Medium was then removed and cells washed with PBS lacking calcium and magnesium, followed by proteinase treatment with accutase (Sigma-Aldrich cat. no. A6964). Detached cells were washed and resuspended in assay buffer (1 x HBSS; 20 mM HEPES, 0.1% BSA, 2 mM IBMX) and cellular density determined. They were then diluted to 400000 cells/ml and 25 µl-aliquots dispensed into the wells of 96-well plates. For measurement, 25 µl of test compound in assay buffer was added to the wells, followed by incubation for 30 minutes at room temperature.
A general note: Changes in cAMP serve as a functional read-out for many G protein-coupled receptors.

As usually defined, the pEC50 is the EC50 on a negative log10 scale, so that one unit is a factor of ten.

As for `CC[C@H](C)[C@H](NC(=O)[C@H](Cc1ccccc1)NC(=O)[C@H](CCC(=O)O)NC(=O)[C@@H]1CCCCNC(=O)CC[C@H](NC(=O)[C@H](CC(=O)O)NC(=O)[C@H](CC(C)C)NC(=O)[C@H](CCC(N)=O)NC(=O)[C@H](CCCCN)NC(=O)[C@H](CO)NC(=O)[C@H](Cc2ccc(O)cc2)NC(=O)[C@H](CC(=O)O)NC(=O)[C@H](CO)NC(=O)[C@@H](NC(=O)[C@H](Cc2ccccc2)NC(=O)[C@@H](NC(=O)CNC(=O)[C@H](CCC(N)=O)NC(=O)[C@@H](CO)NC(=O)[C@@H](N)Cc2cscn2)[C@@H](C)O)[C@@H](C)O)C(=O)N[C@@H](CCC(N)=O)C(=O)N[C@@H](CCCNC(=N)N)C(=O)N[C@@H](C)C(=O)N1)C(=O)N[C@@H](CCC(=O)O)C(=O)N[C@@H](Cc1c[nH]c2ccccc12)C(=O)N[C@@H](CC(C)C)C(=O)N[C@@H](CC(C)C)C(=O)N[C@@H](C)C(=O)N[C@H](C(=O)NCC(=O)N1CCC[C@H]1C(=O)N[C@@H](CCC(=O)O)C(=O)N[C@@H](CO)C(=O)NCC(=O)N[C@@H](C)C(=O)N1CCC[C@H]1C(=O)N1CCC[C@H]1C(=O)N1CCC[C@H]1C(=O)N[C@@H](CO)C(=O)N[C@@H](CSCCS(=O)(=O)CCN1CCN(CC(=O)O)CCN(CC(=O)O)CCN(CC(=O)O)CC1)C(N)=O)[C@@H](C)O` [DO3A-S01-GCG] (H-[Ala(4-thiazolyl)][dS]QGTFTSDYSKQLDEQRAKEFIEWLLATGPESGAPPPSC(DO3A(CH2CH2SO2CH2CH2))-NH2; lactam 16-20), the pEC50 was 11.92.
